The values that follow come from US6562793B2, “Antiallergic agent” (We'll Corporation, priority 2000, dated 2003).

Data set [1] can be described thus: Solubility in water. In kind it is physicochemical.
The subject of data set [2] is mast cells from the rat abdominal cavity. As to the kind of experiment: Inhibition of histamine release from mast cells from a rat abdominal cavity. The format is cell-based. To be noted: Releaser: Compound 48/80. The method, then:
A mast cell suspension is collected from a rat abdominal cavity. The suspension is treated with a sample adjusted to 1 to 0.01% (specimen) and to the mixture is added a histamine releasing agent. Inhibition of this release is observed to determine an activity value. […]
A solution of sample adjusted to a concentration of 0.01 to 0.003% in Tyrode's solution containing phosphatidyl-L-serine (PS) (1.75 mL) was preincubated at 37° C. for 5 min. To the solution was added 0.05 mL of the mast cell suspension from the rat abdominal cavity and the mixture was preincubated for further 15 min. […] A control was prepared as described above except that 1.75 mL of Tyrode's solution containing PS was used in place of 1.75 mL of the sample solution in Tyrode's solution containing PS and 0.2 mL of […] PS. After quenching the reaction by ice cooling, the mixture was centrifuged at 300×g and 4° C. for 10 min. The amounts of histamine were determined for the supernatant and the sediment, respectively, according to the method of Shore et al. to calculate an inhibition rate to histamine release.
Calculation equation for a histamine release rate [formula]
PS=Amount of histamine in the supernatant
PR=Amount of histamine remaining in the cells
Calculation equation for a release inhibition rate [formula]
S=Release rate of the sample
C=Release rate of the control […]

`O=c1c(O[C@@H]2OC(CO[C@@H]3OC(CO)[C@@H](O)C(O)C3O)[C@@H](O)C(O)C2O)c(-c2ccc(O)cc2)oc2cc(O)cc(O)c12` (stereo partly drawn) [kaempferol 3-0 [β-D-glucopyranosyl-(1→6)-β-D-glucopyranoside]]: the solubility in water entry in data set [1] is given as “freely soluble”. Besides, the Inhibition rate was determined as 28.5% in data set [2] (concentration 3 × 10^−5 g/mL) and 98.4% in data set [2] (concentration 9 × 10^−5 g/mL).
